# According to publication PMC12477777, “Human exposure to green spaces and monoterpenes: discovery and use of α-pinene metabolites as biomarkers” (Environment international, 2025):
# Where two headings read alike, the source gives them in different places.
# Tests used:
# [1] = Relative quantification of urinary aPM (UPLC-QTOF-MS, creatinine-normalized) after controlled α-pinene inhalation; type: in vivo, human; conditions: for Frequency of occurrence (percentage of samples with analyte detected) / Maximum response (highest peak response across all urine samples) / Observed Tmax / Tmax: human urine after α-pinene inhalation; for Proportion (observed) after α-pinene inhalation: share of total response of 22 aPM, averaged over post-exposure samples; for Tmax: inhaled or intranasal, read-out: Observed Tmax
# Method: (§1) Briefly, for controlled inhalation experiments, eight healthy volunteers were exposed to α-pinene in a custom-built exposure chamber via inhalation from a 15 ml conical tube, containing approximately 100 μl α-pinene, for a duration of 10 min. Urine samples were collected before exposure (0 h) and 0.5, 1, 2, 3, and 4 h after exposure. […] Urine samples were collected both before (0 h) or 4 h after exposure. After collection, the urine samples were centrifuged and stored at −80 °C before analysis. […] Demographic information, including sex, age and race, can be found in Table S1.
# (§2) Briefly, after 1:10 dilution, urine samples were separated using an Acquity I-Class UPLC system with an Acquity Premier CSH C18 UPLC column (Waters, MA) with a gradient comprising 0.1 % formic acid in water as the solvent A and 0.1 % formic acid in acetonitrile as the solvent B. Mass Spectrometry Elevated Energy (MS^E) data were collected using a Waters Synapt XS MS (Waters, MA) with an ESI ion source operated in the negative mode. Subsequent analyses of raw files were performed using UNIFI 1.9 and Progenesis QI 3.0 (both from Waters, MA). To validate LC-MS performance, one quality control (QC) sample, prepared by pooling equal amount of each urine sample, was injected after every ten urine sample injections.
# (§3) Relative quantification of aPM was performed based on the peak responses normalized to urinary creatinine levels. Urinary creatinine levels were measured using an Ace Axcel Clinical Chemistry System with ACE Creatinine Reagent from Alfa Wassermann (West Caldwell, NJ). Statistical analyses, including ANOVA and Student’s t-tests, were conducted using SAS 9.4 (SAS Institute, NC) to explore differences in aPM across various time points. […] A threshold for statistical significance was defined as p < 0.05.
# [2] = aPM in mouse urine after i.p. injection of (+)-α-pinene or (−)-α-pinene; type: in vivo, mice (C57BL/6); conditions: for R/(R+S): mouse urine, enantiomer specificity
# Method: Mouse urine was collected after exposures to either (+) or (−) α-pinene to distinguish between metabolites of different enantiomers of α-pinene. Adult male mice (C57BL/6) were intraperitoneally administered with 50 mg/kg body weight of (+)-α-pinene or (−)-α-pinene dissolved in 100 μl sterile saline with 1 % Tween 80.
# [3] = Kinetic modeling of urinary aPM with a pseudo one-compartment nonlinear mixed-effects model after α-pinene inhalation; type: in vivo, human; conditions: for F (%), fraction of metabolite generated from absorbed α-pinene: human urine after 10 min α-pinene inhalation, F normalized to the sum of 22 detected metabolites; for Elimination t1/2 / Ka, first-order generation constant / Ke, first-order elimination rate constant / half-life / k el: human urine after α-pinene inhalation, pseudo one-compartment model; for half-life / k el: inhaled or intranasal; for half-life: read-out: Elimination t1/2 (converted); for k el: read-out: Ke, first-order elimination rate constant (converted)
# Excerpt: In this equation, i represents the participant index, j the urine sample index, C the creatinine-normalized peak response, and t the sample collection time ( h).Ka denotes the first-order generation constant ( h^−1 ), and Ke denotes the first-order elimination rate constant h^−1 . F indicates the fraction of specific aPM relative to absorbed α-pinene. The variables D and V refer to the absorbed α-pinene amount and the distribution volume, respectively. Because input data were derived from relative quantification, absolute values of D , V , and F were not available. For simplicity, D and V were fixed at 100 and 1, respectively, and F was normalized relative to the sum of all detected aPM. The error term ε accounts for residual variation.
# [4] = Urinary aPM after 4 h greenness (forest) exposure; type: in vivo, human; design: Maximum response: unit not given here; conditions: for Frequency of occurrence / Maximum response: human urine, greenness exposure; for Proportion (observed) after greenness exposure: share of total aPM response
# Method: as §1, §2, §3
# [5] = cited from earlier work
# [6] = mouse urine collected overnight, 50 mg/kg i.p. (+)-α-pinene, 50 mg/kg
# [7] = mouse urine collected overnight, 50 mg/kg i.p. (−)-α-pinene, 50 mg/kg
# [8] = male, C57BL/6, mouse, in vivo, ip, 50 mg/kg
molecule,measurement,setting,value
"CC1(C)C2CC1C(OC1OC(C(=O)O)C(O)C(O)C1O)C=C2C(=O)O (single isomer, unassigned) [aPM5a, Myrtenic acid-4-O-GlcA]",Frequency of occurrence (percentage of samples with analyte detected),[1],79.2%
same,Maximum response (highest peak response across all urine samples),[1],4787
same,Observed Tmax,[1],1 h
same,Proportion (observed) after α-pinene inhalation,[1],0.3%
same,"(1R)-(+)-α-Pinene (Average), proportion of aPM in mouse urine",[2]; [6],0.0%
same,"(1S)-(−)-α-Pinene (Average), proportion of aPM in mouse urine",[2]; [7],0.1%
same,R/(R+S),[2],0%
same,"F (%), fraction of metabolite generated from absorbed α-pinene",[3],0.25 ± 0.09%
same,Elimination t1/2,[3],60 ± 22.8 min
same,"Ka, first-order generation constant",[3],1.64 ± 0.77 h⁻¹
same,"Ke, first-order elimination rate constant",[3],0.70 ± 0.27 h⁻¹
same,Frequency of occurrence,[4],0.0%
"CC1(C)C2CC=C(C(=O)OC3OC(C(=O)O)C(O)C(O)C3O)C1C2 (single isomer, unassigned) [aPM3a, Myrtenic acid-GlcA]",Frequency of occurrence (percentage of samples with analyte detected),[1],93.8%
same,Maximum response (highest peak response across all urine samples),[1],50629
same,Observed Tmax,[1],1 h
same,Proportion (observed) after α-pinene inhalation,[1],3.2%
same,"(1R)-(+)-α-Pinene (Average), proportion of aPM in mouse urine",[2]; [6],0.0%
same,"(1S)-(−)-α-Pinene (Average), proportion of aPM in mouse urine",[2]; [7],10.0%
same,R/(R+S),[2],0%
same,"F (%), fraction of metabolite generated from absorbed α-pinene",[3],2.92 ± 0.94%
same,Elimination t1/2,[3],55.8 ± 16.2 min
same,"Ka, first-order generation constant",[3],1.80 ± 0.67 h⁻¹
same,"Ke, first-order elimination rate constant",[3],0.75 ± 0.22 h⁻¹
same,Frequency of occurrence,[4],0.0%
Pinanetriol-GlcA [aPM7b],Frequency of occurrence (percentage of samples with analyte detected),[1],83.3%
same,Maximum response (highest peak response across all urine samples),[1],8663
same,Observed Tmax,[1],0.5 h
same,Proportion (observed) after α-pinene inhalation,[1],0.2%
same,"(1R)-(+)-α-Pinene (Average), proportion of aPM in mouse urine",[2]; [6],3.7%
same,"(1S)-(−)-α-Pinene (Average), proportion of aPM in mouse urine",[2]; [7],0.0%
same,R/(R+S),[2],100%
same,"F (%), fraction of metabolite generated from absorbed α-pinene",[3],0.28 ± 0.09%
same,Elimination t1/2,[3],36.6 ± 7.2 min
same,"Ka, first-order generation constant",[3],2.69 ± 0.73 h⁻¹
same,"Ke, first-order elimination rate constant",[3],1.15 ± 0.22 h⁻¹
same,Frequency of occurrence,[4],0.0%
"CC1=CCC2CC1C2(C)C (stereo not drawn) [α-pinene, α-Pinene]",Blood half-life (t1/2α),"[5]; α-pinene in blood, ref Falk et al., 1990",~ 5 min
"CC1(C)C2CC1C(C(=O)O)=CC2=O (centres unmarked) [aPM1, Myrtenic acid-4-one]",Frequency of occurrence (percentage of samples with analyte detected),[1],95.8%
same,Maximum response (highest peak response across all urine samples),[1],17385
same,Tmax,[1],60 min
same,Proportion (observed) after α-pinene inhalation,[1],1.8%
same,"(1R)-(+)-α-Pinene (Average), proportion of aPM in mouse urine",[2]; [8],0.1%
same,"(1S)-(−)-α-Pinene (Average), proportion of aPM in mouse urine",[2]; [8],0.8%
same,"F (%), fraction of metabolite generated from absorbed α-pinene",[3],1.15 ± 0.39%
same,"Ka, first-order generation constant",[3],1.25 ± 0.43 h⁻¹
same,half-life,[3],72 ± 22.8 min
same,k el,[3],0.000161 s⁻¹
same,Frequency of occurrence,[4],31.3%
same,Maximum response,[4],3544
same,Proportion (observed) after greenness exposure,[4],1.3%
"CC1(C)C2CC1C(OC1OC(C(=O)O)C(O)C(O)C1O)C=C2C(=O)O (single isomer, unassigned) [aPM5c, Myrtenic acid-4-O-GlcA]",Frequency of occurrence (percentage of samples with analyte detected),[1],79.2%
same,Maximum response (highest peak response across all urine samples),[1],25963
same,Observed Tmax,[1],1 h
same,Proportion (observed) after α-pinene inhalation,[1],1.2%
same,"(1R)-(+)-α-Pinene (Average), proportion of aPM in mouse urine",[2]; [6],0.0%
same,"(1S)-(−)-α-Pinene (Average), proportion of aPM in mouse urine",[2]; [7],0.0%
same,"F (%), fraction of metabolite generated from absorbed α-pinene",[3],1.28 ± 0.53%
same,Elimination t1/2,[3],52.8 ± 21.6 min
same,"Ka, first-order generation constant",[3],1.73 ± 0.89 h⁻¹
same,"Ke, first-order elimination rate constant",[3],0.79 ± 0.32 h⁻¹
same,Frequency of occurrence,[4],37.5%
same,Maximum response,[4],136
same,Proportion (observed) after greenness exposure,[4],0.7%
"CC1(C)C2CCC(C(=O)OC3OC(C(=O)O)C(O)C(O)C3O)C1C2 (single isomer, unassigned) [aPM4a, Dihydromyrtenic acid-GlcA]",Frequency of occurrence (percentage of samples with analyte detected),[1],89.6%
same,Maximum response (highest peak response across all urine samples),[1],72991
same,Observed Tmax,[1],1 h
same,Proportion (observed) after α-pinene inhalation,[1],2.4%
same,"(1R)-(+)-α-Pinene (Average), proportion of aPM in mouse urine",[2]; [6],0.0%
same,"(1S)-(−)-α-Pinene (Average), proportion of aPM in mouse urine",[2]; [7],5.0%
same,R/(R+S),[2],0.0%
same,"F (%), fraction of metabolite generated from absorbed α-pinene",[3],3.19 ± 1.11%
same,Elimination t1/2,[3],42.6 ± 13.2 min
same,"Ka, first-order generation constant",[3],2.12 ± 0.87 h⁻¹
same,"Ke, first-order elimination rate constant",[3],0.98 ± 0.30 h⁻¹
same,Frequency of occurrence,[4],6.3%
same,Maximum response,[4],53
same,Proportion (observed) after greenness exposure,[4],0.0%
"CC1=CC(OC2OC(C(=O)O)C(O)C(O)C2O)C2CC1C2(C)C (centres unmarked) [aPM2b, verbenol glucuronide]",Frequency of occurrence (percentage of samples with analyte detected),[1],100.0%
same,Tmax,[1],30 min
same,"(1R)-(+)-α-Pinene (Average), proportion of aPM in mouse urine",[2]; [8],50.5%
same,"(1S)-(−)-α-Pinene (Average), proportion of aPM in mouse urine",[2]; [8],34.4%
same,Detection in mouse urine,"[2]; mouse, in vivo",present in murine samples
same,"F (%), fraction of metabolite generated from absorbed α-pinene",[3],17.23 ± 3.91%
same,"Ka, first-order generation constant",[3],3.46 ± 0.98 h⁻¹
same,half-life,[3],35.4 ± 4.8 min
same,k el,[3],0.000325 s⁻¹
same,Frequency of occurrence,[4],6.3%
same,Maximum response,[4],171
same,Proportion (observed) after greenness exposure,[4],0.3%
"CC1(C)C2CC=C(C(=O)OC3OC(C(=O)O)C(O)C(O)C3O)C1C2 (single isomer, unassigned) [aPM3b, Myrtenic acid-GlcA]",Frequency of occurrence (percentage of samples with analyte detected),[1],100.0%
same,Maximum response (highest peak response across all urine samples),[1],352366
same,Observed Tmax,[1],1 h
same,Detection in mouse urine,[2]; after exposure to either α-pinene enantiomer,present in murine samples
same,"(1R)-(+)-α-Pinene (Average), proportion of aPM in mouse urine",[2]; [6],1.6%
same,"(1S)-(−)-α-Pinene (Average), proportion of aPM in mouse urine",[2]; [7],2.7%
same,R/(R+S),[2],37.5%
same,Elimination t1/2,[3],36.6 ± 7.8 min
same,"Ka, first-order generation constant",[3],1.98 ± 0.60 h⁻¹
same,"Ke, first-order elimination rate constant",[3],1.13 ± 0.24 h⁻¹
same,Frequency of occurrence,[4],87.5%
same,Maximum response,[4],2516
same,Proportion (observed) after greenness exposure,[4],17.7%
C=C(C)[C@H]1CC=C(C)CC1 [limonene],Blood half-life (t1/2α),"[5]; limonene in blood, ref Falk-Filipsson et al., 1993",~ 3 min
"CC1(C)C2CC1C(OC1OC(C(=O)O)C(O)C(O)C1O)C=C2C(=O)O (single isomer, unassigned) [aPM5f, Myrtenic acid-4-O-GlcA]",Frequency of occurrence (percentage of samples with analyte detected),[1],87.5%
same,Maximum response (highest peak response across all urine samples),[1],5543
same,Observed Tmax,[1],1 h
same,Proportion (observed) after α-pinene inhalation,[1],0.5%
same,"(1R)-(+)-α-Pinene (Average), proportion of aPM in mouse urine",[2]; [6],0.0%
same,"(1S)-(−)-α-Pinene (Average), proportion of aPM in mouse urine",[2]; [7],0.0%
same,"F (%), fraction of metabolite generated from absorbed α-pinene",[3],0.29 ± 0.12%
same,Elimination t1/2,[3],57 ± 22.2 min
same,"Ka, first-order generation constant",[3],1.53 ± 0.71 h⁻¹
same,"Ke, first-order elimination rate constant",[3],0.73 ± 0.29 h⁻¹
same,Frequency of occurrence,[4],0.0%
Myrtenic acid-4-O-7-O-GlcA [aPM8],Frequency of occurrence (percentage of samples with analyte detected),[1],83.3%
same,Maximum response (highest peak response across all urine samples),[1],13644
same,Observed Tmax,[1],1 h
same,Proportion (observed) after α-pinene inhalation,[1],0.8%
same,"(1R)-(+)-α-Pinene (Average), proportion of aPM in mouse urine","[2]; mouse urine collected overnight, 50 mg/kg i.p. (+)-α-pinene",0.0%
same,"(1S)-(−)-α-Pinene (Average), proportion of aPM in mouse urine","[2]; mouse urine collected overnight, 50 mg/kg i.p. (−)-α-pinene",0.0%
same,"F (%), fraction of metabolite generated from absorbed α-pinene",[3],0.65 ± 0.31%
same,Elimination t1/2,[3],58.2 ± 25.2 min
same,"Ka, first-order generation constant",[3],0.73 ± 0.33 h⁻¹
same,"Ke, first-order elimination rate constant",[3],0.71 ± 0.31 h⁻¹
same,Frequency of occurrence,[4],0.0%
